Assay results taken from PubChem BioAssay AID254 (DTP/NCI, 2004).
Values joined by “and” are separate entries in the source; they are usually repeats but may differ in a detail not shown here. Equal entries are not always repeated. Inconclusive results and toxic doses are left out.

Tested on: L1210 leukemia iv in BDF1 mice, survival T/C
Experiment: NCI In Vivo Anticancer Drug Screen. Data for tumor model L1210 Leukemia (intravenous) in B6D2F1 (BDF1) mice
Conditions: higher = longer survival
Experimental: The antitumor activity of compounds was measured in mice bearing transplantable tumors. Survival or tumor size were measured and the results are expressed as the measurement made in the treated group (T) divided by the measurement made in the vehicle treated control group (C). The tumor model used in this assay is L1210 Leukemia (intravenous) in B6D2F1 (BDF1) mice

O=NN(CCCl)C(=O)NC1CCC(NC(=O)N(CCCl)N=O)CC1 (centres undefined) was tested, and the T/C (endpoint: mean survival time, dose: 23.0 mg/kg/injection, schedule: Q01DX001 (ip), vehicle: other) was 157 % of control and 193 % of control, the T/C (endpoint: mean survival time, dose: 38.0 mg/kg/injection, schedule: Q01DX001 (oral), vehicle: other) was 124 % of control and the T/C (endpoint: mean survival time, dose: 44.0 mg/kg/injection, schedule: Q01DX001 (ip), vehicle: saline with Tween-80) was 169 % of control. For the same compound, the T/C (endpoint: mean survival time, dose: 48.0 mg/kg/injection, schedule: Q01DX001 (ip), vehicle: other) was 450 % of control and 218 % of control, the T/C (endpoint: mean survival time, dose: 67.0 mg/kg/injection, schedule: Q01DX001 (ip), vehicle: saline with Tween-80) was 178 % of control and 169 % of control and the T/C (endpoint: mean survival time, dose: 84.0 mg/kg/injection, schedule: Q01DX001 (oral), vehicle: other) was 150 % of control and 165 % of control. The T/C (endpoint: mean survival time, dose: 96.0 mg/kg/injection, schedule: Q01DX001 (ip), vehicle: other) was 375 % of control and 594 % of control, the T/C (endpoint: mean survival time, dose: 100.0 mg/kg/injection, schedule: Q01DX001 (ip), vehicle: saline with Tween-80) was 246 % of control and 238 % of control and the T/C (endpoint: mean survival time, dose: 150.0 mg/kg/injection, schedule: Q01DX001 (ip), vehicle: saline with Tween-80) was 255 % of control and 263 % of control. For the same compound, the T/C (endpoint: mean survival time, dose: 171.0 mg/kg/injection, schedule: Q01DX001 (oral), vehicle: other) was 177 % of control and 214 % of control, the T/C (endpoint: mean survival time, dose: 191.0 mg/kg/injection, schedule: Q01DX001 (ip), vehicle: other) was 475 % of control and 531 % of control and the T/C (endpoint: mean survival time, dose: 225.0 mg/kg/injection, schedule: Q01DX001 (ip), vehicle: saline with Tween-80) was 438 % of control and 328 % of control. For the same compound, the T/C (endpoint: mean survival time, dose: 319.0 mg/kg/injection, schedule: Q01DX001 (oral), vehicle: other) was 453 % of control and 274 % of control, the T/C (endpoint: mean survival time, dose: 337.0 mg/kg/injection, schedule: Q01DX001 (ip), vehicle: saline with Tween-80) was 507 % of control and the T/C (endpoint: mean survival time, dose: 383.0 mg/kg/injection, schedule: Q01DX001 (ip), vehicle: other) was 340 % of control and 381 % of control. For the same compound, the T/C (endpoint: mean survival time, dose: 638.0 mg/kg/injection, schedule: Q01DX001 (oral), vehicle: other) was 478 % of control and 554 % of control.

In the case of O=C1N[C@@H]([C@H]2CC[C@H](Cl)CN2)C(=O)N[C@H]1[C@H]1CC[C@H](Cl)CN1, the T/C (endpoint: mean survival time, dose: 4.4 mg/kg/injection, schedule: Q01DX001 (ip), vehicle: saline) is reported as 186 % of control, the T/C (endpoint: mean survival time, dose: 6.6 mg/kg/injection, schedule: Q01DX001 (ip), vehicle: saline) is reported as 202 % of control and the T/C (endpoint: mean survival time, dose: 10.0 mg/kg/injection, schedule: Q01DX001 (ip), vehicle: saline) is reported as 227 % of control. The T/C (endpoint: mean survival time, dose: 15.0 mg/kg/injection, schedule: Q01DX001 (ip), vehicle: saline) was 163 % of control.

In the case of O=NN(CCCl)C(=O)NCCCl, the T/C (endpoint: mean survival time, dose: 7.0 mg/kg/injection, schedule: Q01DX001 (ip), vehicle: other) is reported as 152 % of control and 175 % of control, the T/C (endpoint: mean survival time, dose: 10.0 mg/kg/injection, schedule: Q01DX001 (ip), vehicle: other) is reported as 197 % of control and the T/C (endpoint: mean survival time, dose: 10.0 mg/kg/injection, schedule: Q01DX001 (ip), vehicle: saline + alcohol) is reported as 347 % of control (2×) and 204 % of control. For the same compound, the T/C (endpoint: mean survival time, dose: 10.0 mg/kg/injection, schedule: Q04DX004 (ip), vehicle: other) was 256 % of control, the T/C (endpoint: mean survival time, dose: 15.0 mg/kg/injection, schedule: Q04DX004 (ip), vehicle: other) was 719 % of control and the T/C (endpoint: mean survival time, dose: 18.0 mg/kg/injection, schedule: Q01DX001 (ip), vehicle: saline + alcohol) was 263 % of control. The T/C (endpoint: mean survival time, dose: 20.0 mg/kg/injection, schedule: Q04DX004 (ip), vehicle: other) was 629 % of control, the T/C (endpoint: mean survival time, dose: 27.0 mg/kg/injection, schedule: Q01DX001 (ip), vehicle: other) was 335 % of control and 283 % of control and 316 % of control and the T/C (endpoint: mean survival time, dose: 27.0 mg/kg/injection, schedule: Q01DX001 (ip), vehicle: saline + alcohol) was 358 % of control. For the same compound, the T/C (endpoint: mean survival time, dose: 27.0 mg/kg/injection, schedule: Q01DX001 (oral), vehicle: other) was 481 % of control and 523 % of control and 549 % of control, the T/C (endpoint: mean survival time, dose: 30.0 mg/kg/injection, schedule: Q01DX001 (ip), vehicle: other) was 385 % of control and the T/C (endpoint: mean survival time, dose: 30.0 mg/kg/injection, schedule: Q04DX004 (ip), vehicle: other) was 621 % of control. The T/C (endpoint: mean survival time, dose: 31.0 mg/kg/injection, schedule: Q01DX001 (ip), vehicle: other) was 342 % of control and 248 % of control, the T/C (endpoint: mean survival time, dose: 39.0 mg/kg/injection, schedule: Q01DX001 (ip), vehicle: other) was 373 % of control and 400 % of control and 473 % of control and the T/C (endpoint: mean survival time, dose: 40.0 mg/kg/injection, schedule: Q01DX001 (oral), vehicle: other) was 553 % of control and 633 % of control and 678 % of control. For the same compound, the T/C (endpoint: mean survival time, dose: 49.0 mg/kg/injection, schedule: Q01DX001 (ip), vehicle: other) was 466 % of control and 478 % of control and 532 % of control, the T/C (endpoint: mean survival time, dose: 60.0 mg/kg/injection, schedule: Q01DX001 (oral), vehicle: other) was 434 % of control and 471 % of control and 625 % of control and the T/C (endpoint: mean survival time, dose: 62.0 mg/kg/injection, schedule: Q01DX001 (ip), vehicle: other) was 120 % of control and 297 % of control. The T/C (endpoint: median survival time, dose: 18.0 mg/kg/injection, schedule: Q## X001 (ip), vehicle: saline + alcohol) was 188 % of control, the T/C (endpoint: median survival time, dose: 30.0 mg/kg/injection, schedule: Q## X001 (ip), vehicle: saline + alcohol) was 241 % of control and the T/C (endpoint: median survival time, dose: 48.0 mg/kg/injection, schedule: Q## X001 (ip), vehicle: saline + alcohol) was 297 % of control.

With COc1cc([C@@H]2c3cc4c(cc3[C@@H](OC3OC5COC(C)OC5C(O)C3O)[C@H]3COC(=O)[C@H]23)OCO4)cc(OC)c1O (some centres undefined) the T/C (endpoint: mean survival time, dose: 12.0 mg/kg/injection, schedule: Q04DX003 (ip), vehicle: saline) was 117 % of control, the T/C (endpoint: mean survival time, dose: 40.0 mg/kg/injection, schedule: Q04DX003 (ip), vehicle: saline) was 297 % of control and the T/C (endpoint: mean survival time, dose: 60.0 mg/kg/injection, schedule: Q04DX003 (ip), vehicle: saline) was 447 % of control.
